Laboratory results reported in patent US8993637B2 (priority 2013, dated 2015).

Columns and labels:
ROS and NO = assay: Mouse FSGS model: superoxide anion (ROS), DHE and NO in renal tissue, serum, urine; format: in vivo; conditions: days 14 and 28
Description: A progressive type of mouse FSGS model was used, particularly characterized by EPHLs, a key histopathology index of progression of FSGS, peri-glomerular inflammation, and progressive glomerular hyalinosis/sclerosis. The FSGS model was induced in 8-week-old male BALB/c mice (National Laboratory Animal Center, Taipei, Taiwan) by intravenous injection of a single dose of adriamycin (0.10 mg/10 g body weight) (Pfizer, New York, N.Y.) as described previously. […] Age- and sex-matched BALB/c mice were used as normal controls. Urine samples were collected in metabolic cages on days 3, 7, 14, 21, and 28. Renal cortical tissues and blood samples were collected when the mice were sacrificed and stored appropriately for further analysis. The concentration of urine protein was determined using BCA kits (Pierce, Rockford, Ill.) as described previously and normalized to urine creatinine (Cr) levels measured using kits (Wako Pure Chemical Industries, Osaka, Japan), as described previously. Serum levels of blood urea nitrogen (BUN) and Cr were determined using BUN kits and Cr kits (both from Fuji Dry-Chem Slide, Fuji Film Medical, Tokyo, Japan), as described previously. Superoxide anion levels in serum, urine, and kidney tissues were determined as described previously. The results were expressed as relative luminescence units (RLU) per 15 min per milliliter (i.e., RLU/15 min/ml) for serum and urine samples or per milligram dry weight (i.e., RLU/15 min/mg dry weight) for kidney tissues. In addition, renal superoxide anion levels were measured by dihydroethidium (DHE) binding, fluorescence being quantified by counting the percentage of the total nuclei that were positive per kidney cross section as described previously. NO levels in serum and urine were measured using NO detection kits (Abeam, Cambridge, Mass.) according to the manufacturer's instructions.

[1] = tested on: ERK1/2, JNK1/2, p38 in RAW 264.7 macrophages; assay: MAPK phosphorylation (Western blotting) in LPS-activated macrophages; format: cell-based, murine; conditions: Citral 10 μg/ml; LPS 1 μg/ml 0-60 min; p<0.05
Description: RAW-Blue™ cells (Murine macrophages RAW264.7 stably transfected with the NF-κB reporter gene) purchased from InvivoGen (San Diego, Calif.). LPS (from Escherichia coli 0111:B4) and mouse antibodies against phospho-ERK1/2, phospho-JNK1/2, and phospho-p38 (all from Sigma, St. Louis, Mo.). Rabbit antibodies against mouse ERK1, JNK1, and p38, and HRP-labeled second antibodies were purchased from Santa Cruz Biotechnology, and IL-1β, IL-6, and TNF-α ELISA kits from R&D Systems. ROS production assay, NO production assay, NF-κB reporter assay, ELISA, and Western blotting were performed as described previously.

[2] = tested on: CD3+ T cells, F4/80+ macrophages; assay: Mouse FSGS model: renal infiltration of T cells and macrophages (immunohistochemistry); format: in vivo; conditions: days 14 and 28
Description: A progressive type of mouse FSGS model was used, particularly characterized by EPHLs, a key histopathology index of progression of FSGS, peri-glomerular inflammation, and progressive glomerular hyalinosis/sclerosis. The FSGS model was induced in 8-week-old male BALB/c mice (National Laboratory Animal Center, Taipei, Taiwan) by intravenous injection of a single dose of adriamycin (0.10 mg/10 g body weight) (Pfizer, New York, N.Y.) as described previously. […] Age- and sex-matched BALB/c mice were used as normal controls. Urine samples were collected in metabolic cages on days 3, 7, 14, 21, and 28. […] The concentration of urine protein was determined using BCA kits (Pierce, Rockford, Ill.) as described previously and normalized to urine creatinine (Cr) levels measured using kits (Wako Pure Chemical Industries, Osaka, Japan), as described previously. Serum levels of blood urea nitrogen (BUN) and Cr were determined using BUN kits and Cr kits (both from Fuji Dry-Chem Slide, Fuji Film Medical, Tokyo, Japan), as described previously.
Renal tissues were formalin-fixed, embedded in paraffin, and sections (4 μm) prepared and stained with hematoxylin and eosin (H&E) for renal histopathology as described previously or TUNEL stained for apoptosis as described previously. Renal pathology was examined and renal lesions scored as described previously. […]

[3] = tested on: mouse FSGS model (adriamycin-induced, BALB/c mice); assay: Mouse FSGS model: urine protein and renal function (serum BUN, Cr); format: in vivo; conditions: Citral 200 mg/kg daily by gavage
Description: A progressive type of mouse FSGS model was used, particularly characterized by EPHLs, a key histopathology index of progression of FSGS, peri-glomerular inflammation, and progressive glomerular hyalinosis/sclerosis. The FSGS model was induced in 8-week-old male BALB/c mice (National Laboratory Animal Center, Taipei, Taiwan) by intravenous injection of a single dose of adriamycin (0.10 mg/10 g body weight) (Pfizer, New York, N.Y.) as described previously. […] Age- and sex-matched BALB/c mice were used as normal controls. Urine samples were collected in metabolic cages on days 3, 7, 14, 21, and 28. Renal cortical tissues and blood samples were collected when the mice were sacrificed and stored appropriately for further analysis. The concentration of urine protein was determined using BCA kits (Pierce, Rockford, Ill.) as described previously and normalized to urine creatinine (Cr) levels measured using kits (Wako Pure Chemical Industries, Osaka, Japan), as described previously. Serum levels of blood urea nitrogen (BUN) and Cr were determined using BUN kits and Cr kits (both from Fuji Dry-Chem Slide, Fuji Film Medical, Tokyo, Japan), as described previously. Urine and blood samples were collected from the mice at different time points, which were analyzed for proteinuria and blood urea nitrogen (BUN) and creatinine (Cr) levels by using a urease assay and a picric acid method respectively (Nephron 1998; 78: 440-452).

Compound: CC(C)=CCCC(C)=CC=O (racemic) [Citral, 3,7-dimethyl-2,6-octadienal]
- renal DHE levels (in situ ROS) (ROS and NO; p<0.01): suppressed
- superoxide anion levels in renal tissues (ROS and NO; vs FSGS+vehicle mice, p<0.01): markedly decreased
- superoxide anion levels in serum (ROS and NO; vs FSGS+vehicle mice, p<0.01): markedly decreased
- superoxide anion levels in urine (ROS and NO; vs FSGS+vehicle mice, p<0.01): markedly decreased
- NO levels in serum (ROS and NO; vs FSGS+vehicle, p<0.05): significantly reduced
- NO levels in urine (ROS and NO; vs FSGS+vehicle, p<0.05): significantly reduced
- LPS-induced phosphorylation of ERK1/2 [1]: significantly inhibited
- LPS-induced phosphorylation of JNK1/2 [1]: significantly inhibited
- peri-glomerular infiltration of macrophages (F4/80+) ([2]; p<0.005): significantly decreased
- renal peri-glomerular infiltration of T cells (CD3+) ([2]; p<0.05): markedly inhibited
- proteinuria (urine protein) ([3]; day 14, FSGS+Citral vs FSGS+vehicle mice): slightly inhibited
- proteinuria (urine protein) ([3]; day 21, vs FSGS+vehicle mice, p<0.005): markedly inhibited
- proteinuria (urine protein) ([3]; day 28, vs FSGS+vehicle mice, p<0.01): markedly inhibited
- serum levels of BUN ([3]; days 14 and 28, p<0.05): almost, or completely, suppressed
- serum levels of Cr ([3]; days 14 and 28, p<0.05): almost, or completely, suppressed
